Assay results reported in patent EP1561465A2, “Methods of use of fluoroquinolone compounds against bacteria” (LG Life Sciences, Ltd., priority 1999, dated 2001).
Values after ≈ are worked out from the molar mass of the structure shown. Values joined by “and” are separate entries in the source; they are usually repeats but may differ in a detail not shown here. Equal values may be shown once. Read-outs that look alike come from different tables or passages of the source.

Columns and labels:
Format in all cases: cell-based
[1] = test system: Gram negative anaerobic pathogens and facultative anaerobic pathogens; assay: MIC by agar dilution, Brucella HK agar with 5% laked sheep blood, anaerobic reference strains
[2] = test system: Streptococcus pyogenes; assay: MIC by NCCLS broth microdilution, 1100 Japanese clinical isolates 1997-1998; conditions: Streptococcus pyogenes (n=51)
[3] = test system: Klebsiella pneumoniae; assay: MIC by NCCLS reference broth microdilution, 450 respiratory tract pathogens; conditions: for MIC50 / MIC90: Klebsiella pneumoniae
[4] = test system: Yersinia enterocolitica; assay: MIC by agar dilution (NCCLS M7-A4), 288 enteropathogenic isolates, eight quinolones; conditions: Yersinia enterocolitica (n = 22)
[5] = test system: Salmonella spp.; assay: MIC by agar dilution (NCCLS M7-A4), 288 enteropathogenic isolates, gemifloxacin and 15 other antimicrobials; conditions: read-out: MIC
[6] = test system: Moraxella catarrhalis; assay: MIC by NCCLS reference broth microdilution, 450 respiratory tract pathogens
[7] = extended spectrum β-lactamase negative (n = 30)
[8] = extended spectrum β-lactamase positive (n = 20)

CO/N=C1\CN(c2nc3c(cc2F)c(=O)c(C(=O)O)cn3C2CC2)CC1CN (racemic) [Gemifloxacin, (R,S)-7-(3-aminomethyl-4-methoxyiminopyrrolidin-1-yl)-1-cyclopropyl-6-fluoro-4-oxo-1,4-dihydro-1,8-naphthyridine-3-carboxylic acid]
MIC [1]: 1 µg/mL and 0.125 µg/mL
MIC ([1]; Bacteroides eggerthii, ATCC27754, Bacteroides eggerthii ATCC27754, read-out: MIC): 4 µg/mL (≈ 10.3 µM)
MIC ([1]; Bacteroides fragilis, ATCC25285, Bacteroides fragilis ATCC25285, read-out: MIC): 0.5 µg/mL (≈ 1.28 µM)
MIC ([1]; Bacteroides fragilis, Bacteroides fragilis GA15562, read-out: MIC): 0.25 µg/mL (≈ 0.642 µM)
MIC ([1]; Bacteroides fragilis, Bacteroides fragilis GA-I0558, read-out: MIC): 0.5 µg/mL (≈ 1.28 µM)
MIC ([1]; Bacteroides fragilis, Bacteroides fragilis GA-I7955, read-out: MIC): 2 µg/mL (≈ 5.14 µM)
MIC ([1]; Bacteroides fragilis, Bacteroides fragilis GAI10150, read-out: MIC): 0.5 µg/mL (≈ 1.28 µM)
MIC ([1]; Bacteroides fragilis, Bacteroides fragilis GAI30079, read-out: MIC): 8 µg/mL (≈ 20.5 µM)
MIC ([1]; Bacteroides fragilis, Bacteroides fragilis GAI30144, read-out: MIC): 2 µg/mL (≈ 5.14 µM)
MIC ([1]; Bacteroides fragilis, NCTC10581, Bacteroides fragilis NCTC10581, read-out: MIC): 0.5 µg/mL (≈ 1.28 µM)
MIC ([1]; Bacteroides ovatus, ATCC8483, Bacteroides ovatus ATCC8483, read-out: MIC): 1 µg/mL (≈ 2.57 µM)
MIC ([1]; Bacteroides thetaiotaomicron, ATCC29741, Bacteroides thetaiotaomicron ATCC29741, read-out: MIC): 2 µg/mL (≈ 5.14 µM)
MIC ([1]; Bacteroides uniformis, ATCC8492, Bacteroides uniformis ATCC8492, read-out: MIC): 1 µg/mL (≈ 2.57 µM)
MIC ([1]; Campylobacter gracilis, JCM8538, Campylobacter gracilis JCM8538, read-out: MIC): ≤ 0.03 µg/mL
MIC ([1]; Campylobacter ureolyticus, NCTC10941, Bacteroides ureolyticus NCTC10941, read-out: MIC): ≤ 0.03 µg/mL
MIC ([1]; Capnocytophaga ochracea, Capnocytophaga ochracea GAI5586, read-out: MIC): ≤ 0.03 µg/mL
MIC ([1]; Desullomonas pigra DSM749, read-out: MIC): 0.06 µg/mL (≈ 0.154 µM)
MIC ([1]; Fusobacterium necrophorum, ATCC25286, Fusobacterium necrophorum ATCC25286, read-out: MIC): 0.25 µg/mL (≈ 0.642 µM)
MIC ([1]; Fusobacterium nucleatum, ATCC25586): 0.125 µg/mL (≈ 0.321 µM)
MIC ([1]; Fusobacterium varium, ATCC8501, Fusobacterium varium ATCC8501, read-out: MIC): 0.5 µg/mL (≈ 1.28 µM)
MIC ([1]; Hoylesella oralis, ATCC33269, Prevotella oralis ATCC33269, read-out: MIC): 2 µg/mL (≈ 5.14 µM)
MIC ([1]; Parabacteroides distasonis, ATCC8503, Bacteroides distasonis ATCC8503, read-out: MIC): 0.25 µg/mL (≈ 0.642 µM)
MIC ([1]; Phocaeicola vulgatus, ATCC8482, Bacteroides vulgatus ATCC8482, read-out: MIC): 0.25 µg/mL (≈ 0.642 µM)
MIC ([1]; Porphylomonas gingivalis ATCC33277, read-out: MIC): 0.06 µg/mL (≈ 0.154 µM)
MIC ([1]; Porphyromonas asaccharolytica, ATCC25260, Porphyromonas asaccharolytica ATCC25260, read-out: MIC): 0.06 µg/mL (≈ 0.154 µM)
MIC ([1]; Prevotella bivia, ATCC29303, Prevotella bivia ATCC29303, read-out: MIC): 16 µg/mL (≈ 41.1 µM)
MIC ([1]; Prevotella buccaeATCC33574, read-out: MIC): 2 µg/mL (≈ 5.14 µM)
MIC ([1]; Prevotella corporis, Prevotella corporis GAI91000, read-out: MIC): 1 µg/mL (≈ 2.57 µM)
MIC ([1]; Prevotella heparinolytica, ATCC35895): 0.125 µg/mL (≈ 0.321 µM)
MIC ([1]; Prevotella melaninogenica, Prevotella melaninogenica GAI5490, read-out: MIC): 1 µg/mL (≈ 2.57 µM)
MIC ([1]; Segatella oris, ATCC33573, Prevotella oris ATCC33573, read-out: MIC): 0.5 µg/mL (≈ 1.28 µM)
MIC ([1]; Sutterella wadsworthensis, ATCC51579, Sutterella wadsworthensis ATCC51579, read-out: MIC): 2 µg/mL (≈ 5.14 µM)
MIC ([1]; Veillonella dispar, ATCC17748, Veillonella dispar ATCC17748, read-out: MIC): ≤ 0.03 µg/mL
MIC ([1]; Veillonella parvula, ATCC10790, Veillonella parvula ATCC10790, read-out: MIC): 0.06 µg/mL (≈ 0.154 µM)
MIC90 [2]: 0.063 µg/mL (≈ 0.162 µM)
MIC Range [2]: 0.016 to 0.125 µg/mL
MIC50 ([2]; read-out: MIC50): 0.032 µg/mL (≈ 0.0822 µM)
MIC Range ([3]; Klebsiella pneumoniae (n = 50)): ≤0.0075 to 1 µg/mL
MIC50 ([3]; Klebsiella pneumoniae (n = 50)): 0.03 µg/mL (≈ 0.077 µM)
MIC90 ([3]; Klebsiella pneumoniae (n = 50)): 0.25 µg/mL (≈ 0.642 µM)
MIC50 [3, 7]: 0.015 µg/mL (≈ 0.0385 µM)
MIC90 [3, 7]: 0.06 µg/mL (≈ 0.154 µM)
MIC50 [3, 8]: 0.25 µg/mL (≈ 0.642 µM)
MIC90 [3, 8]: 0.5 µg/mL (≈ 1.28 µM)
MIC Range [3, 7]: ≤0.0075 to 0.12 µg/mL
MIC Range [3, 8]: 0.03 to 1 µg/mL
% Susceptible [4]: 100%
MIC50 [4]: 0.03 µg/mL (≈ 0.077 µM)
MIC90 [4]: 0.03 µg/mL (≈ 0.077 µM)
MIC Range [4]: ≤0.015 to 0.12 µg/mL
MIC ([5]; S. hadar(2), isolates with MICs for ciprofloxacin ≥[…]): 0.25 µg/mL (≈ 0.642 µM)
MIC ([5]; S. newport(1), isolate with MIC for ciprofloxacin ≥[…]): 0.25 µg/mL (≈ 0.642 µM)
MIC ([5]; S. virchow(2), isolates with MICs for ciprofloxacin ≥[…]): 0.12 µg/mL (≈ 0.308 µM)
MIC ([5]; Salmonella, S. tshiongwe(1), isolate with MIC for ciprofloxacin ≥[…]): 0.25 µg/mL (≈ 0.642 µM)
MIC ([6]; Moraxella catarrhalis (n = 50)): 0.00375 to 0.03 µg/mL (≈ 0.00963 to 0.077 µM)
MIC50 ([6]; Moraxella catarrhalis (n = 50)): 0.015 µg/mL (≈ 0.0385 µM)
MIC90 ([6]; Moraxella catarrhalis (n = 50)): 0.015 µg/mL (≈ 0.0385 µM)
MIC ([6]; β-lactamase negative (n = 13)): 0.00375 to 0.015 µg/mL (≈ 0.00963 to 0.0385 µM)
MIC50 ([6]; β-lactamase negative (n = 13)): 0.015 µg/mL (≈ 0.0385 µM)
MIC90 ([6]; β-lactamase negative (n = 13)): 0.015 µg/mL (≈ 0.0385 µM)
MIC ([6]; β-lactamase positive (n = 37)): 0.00375 to 0.03 µg/mL (≈ 0.00963 to 0.077 µM)
MIC50 ([6]; β-lactamase positive (n = 37)): 0.015 µg/mL (≈ 0.0385 µM)
